“And” between values parts separate entries of the source, which are not always exact repeats. Identical values can stand only once. “Also recorded” adds a separate entry of the source. Like-named read-outs stand apart in the source and are kept apart here. Marks after values point to notes of the source that are not given here.
Legend:
[1] = Phase 1 study in advanced hematologic malignancies, safety
[2] = Plasma protein binding, rat; type: in vitro ADME; settings: 100 μM (41700 ng/mL)
From the text: (§1) […]. […] […].

[3] = 13-week repeat-dose safety study, monkey
Caco-2 cell monolayers = assay: Membrane permeability, Caco-2 cell monolayers; type: in vitro ADME, human
[4] = 13-week repeat-dose safety study, rat
respiratory system = assay: Respiratory study (plethysmography); settings: male rats, single oral dose up to 350 mg/kg
PI3K-δ and PI3K-γ = assay: Phase 1 study in advanced hematologic malignancies, pharmacodynamics; type: in vivo, human
Method: PK and PD markers were evaluated after the first dose (e.g., 8 mg BID) and at steady state. PD activity (PI3K inhibition) in whole blood was evaluated using a basophil activation assay which measured reduction in CD63 expression on the surface of basophils following ex vivo stimulation.

[5] = Plasma protein binding, monkey; type: in vitro ADME; settings: 100 μM (41700 ng/mL)
From the text: as §1

hematologic malignancies = assay: Phase 1 study in advanced hematologic malignancies, clinical response
Pharmacokinetics, mouse = type: in vivo, BALB/c mice
[6] = test system: TNF-α and IL-10 production; assay: Cytokine production in diluted whole blood stimulated with LPS; type: cell-based; settings: diluted whole blood (1:1), 24 hours pre-treatment, 100 μg/mL LPS
Method: Serum concentrations of a panel of human cytokines/chemokines were determined by Milliplex 96-well immuno-assay as described below.

[7] = In vivo rat micronucleus assay
[8] = Embryo/fetal developmental toxicity, rat
[9] = Embryo/fetal developmental toxicity, rabbit

C[C@H](Nc1ncnc2[nH]cnc12)c1cc2cccc(Cl)c2c(=O)n1-c1ccccc1 [Compound 292]
SAE ([1]; Safety Population (n = 55)): 11 n
MTD ([1]; after dose escalation to 75 mg BID): not yet reached
tolerability ([1]; patients with advanced hematologic malignancies): well tolerated; also recorded: well-tolerated
protein bound [2]: 85.8%
NOAEL ([3]; 13-week monkey study, oral gavage): 60 mg/m^2/day
NOAEL at 13 weeks ([3]; both, cynomolgus monkey, in vivo, po): 5 mg/kg/day
mean AUC0-24 hr at the NOAEL ([3]; monkey, Day 91, combined sexes): 4015 ng·h/mL
cell membrane permeability (Caco-2 cell monolayers): moderate
NOAEL ([4]; 13-week rat study, oral gavage): 150 mg/m^2/day
NOAEL at 13 weeks ([4]; both, rat, in vivo, po): 25 mg/kg/day
mean AUC0-24 hr at the NOAEL ([4]; rat, Day 91, combined sexes): 14150 ng·h/mL
respiratory parameters (respiratory rate, tidal volume, minute volume) (respiratory system): no Compound 292-related effects
AKT phosphorylation in CLL/SLL cells (PI3K-δ and PI3K-γ; flow cytometry, after one dose (25 mg)): rapid and sustained inhibition
doses achieving complete inhibition of PI3K-δ (PI3K-δ and PI3K-γ; patients): ≥ 15 mg BID
doses increasingly suppressing PI3K-γ (PI3K-δ and PI3K-γ; patients): ≥ 25 mg BID
protein bound [5]: 76.8%
onset of clinical activity (hematologic malignancies; CLL/SLL): Rapid onset
responses in evaluable patients (hematologic malignancies; CLL/SLL, 8, 15, and 25 mg BID dose levels): ⅔
Best Observed Response CR (hematologic malignancies; CLL/SLL, 11 evaluable): 0 n
Best Observed Response PR (hematologic malignancies; CLL/SLL, 11 evaluable): 6 n
Best Observed Response SD (hematologic malignancies; CLL/SLL, 11 evaluable, four nodal responses): 4^c n
Best Observed Response PR (hematologic malignancies; HL, 2 evaluable): 0 n
Best Observed Response SD (hematologic malignancies; HL, 2 evaluable): 0 n
Best Observed Response CR (hematologic malignancies; MCL, 3 evaluable): 0 n
Best Observed Response PR (hematologic malignancies; MCL, 3 evaluable): 2 n
Best Observed Response SD (hematologic malignancies; MCL, 3 evaluable): 0 n
responses in evaluable patients (hematologic malignancies; MCL, 8, 15, and 25 mg BID dose levels): 1/1
Best Observed Response CR (hematologic malignancies; MM, 3 evaluable): 0 n
Best Observed Response PD (hematologic malignancies; MM, 3 evaluable): 2 n
Best Observed Response PR (hematologic malignancies; MM, 3 evaluable): 0 n
Best Observed Response PD (hematologic malignancies; T-Cell Lymphoma, 6 evaluable): 3 n
doses at which responses were observed (hematologic malignancies; T-cell lymphoma and Hodgkin lymphoma): ≥ 50 mg BID
Best Observed Response CR (hematologic malignancies; aNHL, 3 evaluable): 0 n
Best Observed Response PD (hematologic malignancies; aNHL, 3 evaluable): 2 n
Best Observed Response PR (hematologic malignancies; aNHL, 3 evaluable): 0 n
tumor mass (hematologic malignancies; all indications and all dose levels evaluated): Reduction in tumor mass
responses in evaluable patients (hematologic malignancies; iNHL, 8, 15, and 25 mg BID dose levels): ½
Best Observed Response PR (hematologic malignancies; iNHL, 13 evaluable): 7 n
Best Observed Response SD (hematologic malignancies; iNHL, 13 evaluable): 4 n
doses at which responses were observed (hematologic malignancies; iNHL, CLL/SLL, and MCL): ≤ 50 mg BID
pulmonary metastases by PET/CT (hematologic malignancies; patient, enteropathy-associated T-cell lymphoma, 2 cycles, 60 mg BID): complete resolution
half-life (Pharmacokinetics, mouse): less than 2 hrs
AUC(0-inf) (Pharmacokinetics, mouse; BALB/c, in vivo, IV, 10 mg/kg): 1900 ng·h/mL
AUC(0-t) (Pharmacokinetics, mouse; BALB/c, in vivo, IV, 10 mg/kg): 1900 ng·h/mL
Cmax (Pharmacokinetics, mouse; BALB/c, in vivo, IV, 10 mg/kg): 5560 ng/mL
Tmax (Pharmacokinetics, mouse; BALB/c, in vivo, IV, 10 mg/kg): 4.98 min
clearance (Pharmacokinetics, mouse; BALB/c, in vivo, IV, 10 mg/kg): 87.5 mL/min/kg
half-life (Pharmacokinetics, mouse; BALB/c, in vivo, IV, 10 mg/kg, read-out: T1/2 (converted)): 13.2 min
Vd (Pharmacokinetics, mouse; BALB/c, in vivo, IV, 10 mg/kg, read-out: Vss): 1.14 L/kg
AUC(0-t) (Pharmacokinetics, mouse; BALB/c, in vivo, PO, 10 mg/kg): 137 ng·h/mL
Cmax (Pharmacokinetics, mouse; BALB/c, in vivo, PO, 10 mg/kg): 390 ng/mL
Tmax (Pharmacokinetics, mouse; BALB/c, in vivo, PO, 10 mg/kg): 4.98 min
Foral (Pharmacokinetics, mouse; PO, 10 mg/kg, calculated using AUC0-last): 7% and 7^i %
IL-10 production [6]: inhibition
TNF-α production [6]: inhibition
rat micronucleus assay [7]: no direct adverse effect
NOAEL ([8]; female, rat, in vivo): 35 mg/kg/day
mean AUC0-24 hr at the NOAEL ([8]; pregnant rats, last day of dosing): 62200 ng·h/mL
maternal and fetal NOAEL ([8]; rat): 210 mg/m^2/day
NOAEL ([9]; female, rabbit, in vivo): 75 mg/kg/day
mean AUC0-24 hr at the NOAEL ([9]; pregnant rabbits, last day of dosing): 66200 ng·h/mL
maternal and fetal NOAEL ([9]; rabbit): 900 mg/m^2/day
